The numbers were not newly measured in patent US20230117236A1 (priority 2021, published 2023), which cites them from elsewhere.

This data set concerns SARS-CoV-2. Particulars: treatment with 24 ppm of chlorine dioxide; within 10 seconds.

In the case of `[O][Cl+][O-]` [chlorine dioxide], the SARS-CoV-2 inactivated entry is “more than 99.99%”.
